Measurements taken from patent US10144709B2, “Piperidine compounds, pharmaceutical composition comprising the same and its use” (SK BIOPHARMACEUTICALS CO., LTD., priority 2008, dated 2018).
Counter-ions that a name gives are not always drawn.

Test system: ICR CD strain male mice
Assay: Gastric emptying enhancing activity (phenol red meal)
Assay type: in vivo
Conditions: Mus musculus, ip, 0.25 h, 3.0 mg/kg i.p., gastric emptying at 15 min after test meal, increase vs vehicle
Method: ICR CD strain male mice (body weight, 25˜30 g; 8 mice per one group) were fasted for 24 h but allowed free access to water until 3 hours before the test.
Compounds to be tested for promoting GI motility were injected intraperitoneally or given orally at 30 min or 60 min prior to phenol red meal administration. Fifteen (15) min after administration of a test meal (0.5% Phenol red in 1.5% methylcellulose solution), mice were sacrificed and the stomach (pylorus˜cardia) was removed and collected to vial. The stomach was homogenized with its contents in 0.1N NaOH and the mixture was centrifuged (700*g) for 20 min. 2.5 mL of the supernatant was added to 0.25 mL of trichloroacetic acid solution (20% w/v) to precipitate proteins. After centrifuging (2600*g) for 20 min, 0.5 mL of the supernatant was added to 0.25 mL of 1N NaOH. The mixture was homogenized and its absorbance (Abs) was read at 560 nm.
In each experiment, one group was sacrificed just after the administration of the test meal and was considered as a standard (0% emptying). The gastric emptying (GE) at the 15 min period was calculated according to the following formula. GE (%)=(1−Abstest/Absstandard)×100 Increase (%)=(GE %test−GE %vehicle)/GE %vehicle*100

Structure (SMILES) | change in vivo at 3 mg/kg [%]
COc1cc(N)c(Cl)cc1C(=O)NCC1CCN(CCC(NC(=O)O)c2ccc(F)cc2)CC1 (stereo not drawn) [Example 54, [3-[4-[[(4-amino-5-chloro-2-methoxybenzoyl)amino]methyl]piperidin-1-yl]-1-(4-fluorophenyl)propyl]carbamate; hydrochloride] | 89.2
COc1cc(N)c(Cl)cc1C(=O)NCC1CCN(CCC(NC(=O)O)c2ccccc2Cl)CC1 (stereo not drawn) [Example 56, [3-[4-[[(4-amino-5-chloro-2-methoxybenzoyl)amino]methyl]piperidin-1-yl]-1-(2-chlorophenyl)propyl]carbamate; hydrochloride] | 135
COc1cc(N)c(Cl)cc1C(=O)NCC1CCN(CCC(NC(=O)O)c2cccc(Cl)c2Cl)CC1 (stereo not drawn) [Example 59, [3-[4-[[(4-amino-5-chloro-2-methoxybenzoyl)amino]methyl]piperidin-1-yl]-1-(2,3-dichlorophenyl)propyl]carbamate; hydrochloride] | 48
COc1cc(N)c(Cl)cc1C(=O)NCC1CCN(CCC(NC(=O)O)c2ccc(Cl)cc2Cl)CC1 (stereo not drawn) [Example 60, [3-[4-[[(4-amino-5-chloro-2-methoxybenzoyl)amino]methyl]piperidin-1-yl]-1-(2,4-dichlorophenyl)propyl]carbamate; hydrochloride] | 14.2
COc1cc(N)c(Cl)cc1C(=O)NCC1CCN(CCC(NC(=O)O)c2ccc(Cl)c(Cl)c2)CC1 (stereo not drawn) [Example 61, [3-[4-[[(4-amino-5-chloro-2-methoxybenzoyl)amino]methyl]piperidin-1-yl]-1-(3,4-dichlorophenyl)propyl]carbamate; hydrochloride] | 44.3
COc1cc(N)c(Cl)cc1C(=O)NCC1CCN(CCC(NC(=O)O)c2ccc(C(C)C)cc2)CC1 (stereo not drawn) [Example 62, [3-[4-[[(4-amino-5-chloro-2-methoxybenzoyl)amino]methyl]piperidin-1-yl]-1-(4-isopropylphenyl)propyl]carbamate; hydrochloride] | 17.9
COc1cccc(C(CCN2CCC(CNC(=O)c3cc(Cl)c(N)cc3OC)CC2)NC(=O)O)c1 (stereo not drawn) [Example 63, [3-[4-[[(4-amino-5-chloro-2-methoxybenzoyl)amino]methyl]piperidin-1-yl]-1-(3-methoxyphenyl)propyl]carbamate; hydrochloride] | 24.4
COc1cc(N)c(Cl)cc1C(=O)NCC1CCN(CCC(Cc2ccc(F)cc2)NC(=O)O)CC1 (stereo not drawn) [Example 65, [4-[4-[[(4-amino-5-chloro-2-methoxybenzoyl)amino]methyl]piperidin-1-yl]-1-(4-fluorophenyl)butan-2-yl]carbamate; hydrochloride] | 93.1
COc1cc(N)c(Cl)cc1C(=O)NCC1CCN(CC(O)COc2ccccc2)CC1 (stereo not drawn) [Example 71, 4-amino-5-chloro-N-[[1-(2-hydroxy-3-phenoxypropyl)piperidin-4-yl]methyl]-2-methoxybenzamide; hydrochloride] | 63.7
COc1cc(N)c(Cl)cc1C(=O)NCC1CCN(CC(O)COc2ccc(F)cc2)CC1 (stereo not drawn) [Example 72, 4-amino-5-chloro-N-[[1-[3-(4-fluorophenoxy)-2-hydroxypropyl]piperidin-4-yl]methyl]-2-methoxybenzamide; hydrochloride] | 48.1
COc1ccc(OCC(O)CN2CCC(CNC(=O)c3cc(Cl)c(N)cc3OC)CC2)cc1 (stereo not drawn) [Example 74, 4-amino-5-chloro-N-[[1-[2-hydroxy-3-(4-methoxyphenoxy)propyl]piperidin-4-yl]methyl]-2-methoxybenzamide; hydrochloride] | 46.7
COc1cc(N)c(Cl)cc1C(=O)NCC1CCN(CC(O)COc2ccc(C(F)(F)F)cc2)CC1 (stereo not drawn) [Example 83, 4-amino-5-chloro-N-[[1-[2-hydroxy-3-[4-(trifluoromethyl)phenoxy]propyl]piperidin-4-yl]methyl]-2-methoxybenzamide; hydrochloride] | 42.5
